Data on two compounds can be found in patent US9850276B2, “Bidentate-binding modulators of LRRK2 and JNK kinases” (THE SCRIPPS RESEARCH INSTITUTE, priority 2013, dated 2017).

In series [1] the test system is H9c2 cells. Put plainly: ROS generation under H2O2 oxidative stress. It is filed as cell-based. As to conditions: 25 μM H2O2 + 500 nM SR-3306. On the procedure:
(§1) To test whether JNK mitochondrial localization had effects on mitochondrial function we measured the impact of Tat-Sab, and a small molecule JNK inhibitor, SR-3306 (commercially available from Calbiochem), on ROS generation and mitochondrial membrane depolarization in H9c2 cells treated with H2O2. The ROS fluorescence/cell in the absence of oxidative stress (PBS), was compared to treatment with either 25 μM H2O2, or 25 μM H2O2+500 nM SR-3306, or 25 μM H2O2+3 μM Tat-scramble peptide, or 25 μM H2O2+3 μM Tat-Sab peptide.

The subject of series [2] is H9c2 cells. In words: Cell viability under oxidative stress (Cell-Titer Glo luminescent assay). It is filed as cell-based. Conditions: 25 μM H2O2 + 500 nM SR-3306. On the procedure:
(§2) A similar effect was seen when mitochondrial membrane potential was measured by Rhodamine 123 detection. […] Similarly, both ROS generation and membrane depolarization effects elicited by oxidative stress in H92c cells were blocked by inhibition of JNK with the small molecule, SR-3306 (commercially available from Calbiochem). Finally, the effect of SR-3306 or Tat-Sab on cell viability in response to oxidative stress was measured by a Cell-Titer Glo luminescent assay. H9c2 cells treated with 25 μM H2O2 were ˜40% viable, whereas addition of 500 nM SR-3306 to cells treated with 25 μM H2O2 increased viability to ˜80%, and addition of 3 μM Tat-Sab peptide to cells treated with 25 μM H2O2 increased viability to ˜65% compared to 95% viable in untreated cells.

Series [3] relates to infarct size in rat hearts. Put plainly: I/R MI rat model, 30 minutes ischemia and 24 hours reperfusion. Conditions: 5 mg/kg SR-3306; anesthetized rats; p<0.05. The class given is in vivo. On the procedure:
The in vivo efficacy of SR-3306 in anesthetized rats after 30 minutes ischemia and 24 hours reperfusion was evaluated.

The test system of series [4] is H9c2 cells. In words: Mitochondrial membrane potential under H2O2 (Rhodamine 123 detection). It is filed as cell-based. Conditions: 25 μM H2O2. On the procedure: as §1, §2
The test system of series [5] is cardiomyocyte apoptosis and infarct size. Conditions: rats; cited from earlier work.

In the case of `Cc1ccc(-c2ncn(-c3ccc(Nc4nccc(-c5cccc(N6CCOCC6)c5)n4)cc3)n2)cn1` [SR-3306], in the series on H9c2 cells [1], the “reduction of ROS generation compared to 25 μM H2O2 treatment” value is reported as around 2 fold. In addition, the cell viability in the series with H9c2 cells [2] is given as around 80%. For the same compound, in series [3], the “infarct size (IS)” value is 23±3.5 % of AAR. The “mitochondrial membrane potential perturbation / depolarization” value with H9c2 cells [4] was “blocked”.
Consider `N#CC(c1ccnc(NCCc2cccnc2)n1)c1nc2ccccc2s1` (centres unmarked) [AS601245], for which the “cardiomyocyte apoptosis and infarct size after I/R” value in series [5] was “decreased cardiomyocyte apoptosis and infarct size”.

By cell viability is commonly meant a per cent measure of how many cells are alive, often set against a control.
